Experimental data: article PMC3351444, “Molecular Evolution of a Peptide GPCR Ligand Driven by Artificial Neural Networks” (PLoS ONE, 2012)
Read-outs that look alike come from different tables or passages of the source. Square brackets hold non-standard residues; d marks the D form. Ends that are not written are not given here. Peptide text beside a SMILES is read from it.

Tests used:
[1] = In vitro peptide stability in human serum (RP-HPLC); details: for t1/2: metabolic stability in human serum; for half-life at 50 µg/mL: human, human serum, 25% (v/v) in RPMI
[2] = molecular target: T1, human CMKLR1 (Homo sapiens, UniProt Q99788); assay: Ca2+ mobilization (CellLux imaging) agonist assay in HEK293A cells expressing CMKLR1 and Gα15; format: cell-based
T1 construct: host or cells: HEK293A (Invitrogen), stably expressing human Gα15
T1 sequence (Q99788 1-373): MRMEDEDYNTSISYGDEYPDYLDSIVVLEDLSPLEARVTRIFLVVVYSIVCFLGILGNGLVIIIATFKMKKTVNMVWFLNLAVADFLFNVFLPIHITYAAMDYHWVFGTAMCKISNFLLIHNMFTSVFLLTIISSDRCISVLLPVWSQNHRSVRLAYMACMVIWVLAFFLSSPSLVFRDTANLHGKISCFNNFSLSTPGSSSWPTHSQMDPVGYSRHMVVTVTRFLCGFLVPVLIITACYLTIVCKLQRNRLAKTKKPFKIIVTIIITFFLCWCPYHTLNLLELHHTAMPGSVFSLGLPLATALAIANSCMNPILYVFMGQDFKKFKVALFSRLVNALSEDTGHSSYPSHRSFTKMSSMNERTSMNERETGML
Method: HEK293A cells (Invitrogen) expressing CMKLR1 and Gα15 were seeded at 5*10^4 cells/well in a poly-D-lysine coated 96-well black well/clear bottom plate (BD Falcon) and cultured overnight. From eighteen to twenty-four hours later, cells were loaded with FLUO4-AM (Invitrogen). Then the cells were washed two times with C1 solution (130 mM NaCl, 5 mM KCl, 10 mM HEPES pH 7.4, 2 mM CaCl2, and 10 mM Glucose). After the final wash, a 100 µL of residual volume remained on the cells. Peptides were dissolved in 10% DMSO to a concentration of 1 mM and were diluted in C1 solution with 0.1 % BSA. They were aliquoted as 2x solutions in 96-well plates and were simultaneously transferred by the robotic system within the imager from the ligand plate to the cell plate. […] Fluorescence data was generated in duplicate and experiments were repeated for at least three times. […] For the calculation of concentration-response curves, signals of two wells receiving the same concentration of test substances were averaged and the fluorescence changes of corresponding buffer C1 wells were subtracted. Signals were normalized to background fluorescence. For the calculation of EC50 values, plots of amplitude versus concentrations were prepared in SigmaPlot 11.

[3] = Ca2+ mobilization, CMKLR1, decimal comma
[4] = Ca2+ mobilization, CMKLR1, decimal comma, NR where no EC50 is given, read-out: EC50
[5] = intracellular calcium mobilization, HEK293 cells expressing CMKLR1, mean of three independent experiments ± SD, read-out: activity: EC50 ±SD

In the case of CC(C)C[C@H](NC(=O)[C@@H](N)Cc1ccc(O)cc1)C(=O)N1CCC[C@H]1C(=O)N[C@H](C)C(=O)N[C@@H](CCC(N)=O)C(=O)N[C@@H](Cc1ccc(O)cc1)C(=O)N[C@@H](C)C(=O)N[C@@H](Cc1ccccc1)C(=O)N[C@H](CO)C(=O)O [compound 124] (H-YLP[dA]QYAF[dS]-OH; N-terminus assumed), the t1/2 [1] is reported as 110 min and the max response [2, 3] is reported as 1,75 DF/F0.

For FLPGQYAFL-OH [compound 46], the half-life at 50 µg/mL [1] was 28 min, the max response [2, 3] was 1,06 DF/F0 and the EC50 [2, 4] was 0.0135 µM.

For LLPGLFLKL-OH [compound 74], the half-life at 50 µg/mL [1] was 39 min, the max response [2, 3] was 0,85 DF/F0 and the EC50 [2, 4] was 5.12 µM.

In the case of YFPGQFAFG-OH [compound 29], the t1/2 [1] is reported as 13 min and the max response [2] is reported as 1,01 DF/F0.

For C[C@H](NC(=O)[C@H](Cc1ccc(O)cc1)NC(=O)[C@H](CCC(N)=O)NC(=O)CNC(=O)[C@@H]1CCCN1C(=O)[C@H](CCC(=O)O)NC(=O)[C@@H](N)Cc1ccc(O)cc1)C(=O)N[C@@H](Cc1ccccc1)C(=O)N[C@H](CO)C(=O)O [compound 94] (H-YEPGQYAF[dS]-OH; N-terminus assumed), the half-life at 50 µg/mL [1] was 47 min, the max response [2, 3] was 1,56 DF/F0 and the EC50 [2, 4] was 0.0762 µM.

With FLPGQYAFK-OH [compound 64] the half-life at 50 µg/mL [1] was 26 min, the max response [2, 3] was 0,93 DF/F0 and the EC50 [2, 4] was 0.567 µM.

With CC(C)C[C@H](NC(=O)[C@@H](N)Cc1ccc(O)cc1)C(=O)N1CCC[C@H]1C(=O)NCC(=O)N[C@@H](CCC(N)=O)C(=O)N[C@@H](Cc1ccccc1)C(=O)N[C@H](Cc1c[nH]c2ccccc12)C(=O)N[C@@H](Cc1ccccc1)C(=O)N[C@@H](CO)C(=O)O [compound 41] (H-YLPGQF[dW]FS-OH; N-terminus assumed) the half-life at 50 µg/mL [1] was 45 min, the max response [2, 3] was 0,94 DF/F0 and the EC50 [2, 4] was 0.00723 µM.

For CC(C)C[C@H](NC(=O)CN)C(=O)N[C@@H](CCC(N)=O)C(=O)N[C@H](CCC(N)=O)C(=O)N[C@@H](Cc1ccccc1)C(=O)N[C@@H](Cc1ccc(O)cc1)C(=O)N[C@H](Cc1c[nH]c2ccccc12)C(=O)NCC(=O)N[C@H](Cc1ccccc1)C(=O)O [compound 132] (H-GLQ[dQ]FY[dW]G[dF]-OH; N-terminus assumed), the half-life at 50 µg/mL [1] was 117 min, the max response [2, 3] was 1,82 DF/F0 and the EC50 [2, 4] was 0.0557 µM.

In the case of YFPGQYAFF-OH [compound 30], the half-life at 50 µg/mL [1] is reported as 26 min, the max response [2, 3] is reported as 0,98 DF/F0 and the EC50 [2, 4] is reported as 0.00189 µM.

In the case of C[C@@H](NC(=O)[C@H](Cc1ccc(O)cc1)NC(=O)[C@H](CCC(N)=O)NC(=O)[C@H](N)Cc1ccccc1)C(=O)N[C@@H](CCC(N)=O)C(=O)N[C@@H](Cc1ccc(O)cc1)C(=O)N[C@H](Cc1c[nH]c2ccccc12)C(=O)N[C@@H](Cc1ccccc1)C(=O)N[C@H](CO)C(=O)O [compound 146] (H-[dF]QY[dA]QY[dW]F[dS]-OH; N-terminus assumed), the half-life at 50 µg/mL [1] is reported as 2260 min, the max response [2, 3] is reported as 1,49 DF/F0 and the EC50 [2, 4] is reported as 0.171 µM.

For CC(C)C[C@H](NC(=O)[C@@H](N)Cc1ccc(O)cc1)C(=O)N1CCC[C@H]1C(=O)NCC(=O)N[C@@H](CCC(N)=O)C(=O)N[C@@H](Cc1ccccc1)C(=O)N[C@H](Cc1ccccc1)C(=O)N[C@@H](Cc1ccccc1)C(=O)N[C@@H](CO)C(=O)O [compound 28] (H-YLPGQF[dF]FS-OH; N-terminus assumed), the half-life at 50 µg/mL [1] was 24 min, the max response [2, 3] was 0,97 DF/F0 and the EC50 [2, 4] was 0.00077 µM.

With C[C@H](NC(=O)[C@H](Cc1ccc(O)cc1)NC(=O)[C@H](CCC(N)=O)NC(=O)CNC(=O)[C@@H]1CCCN1C(=O)[C@@H](Cc1ccc(O)cc1)NC(=O)[C@@H](N)Cc1ccc(O)cc1)C(=O)N[C@@H](Cc1ccccc1)C(=O)N[C@H](CO)C(=O)O [compound 88] (H-Y[dY]PGQYAF[dS]-OH; N-terminus assumed) the half-life at 50 µg/mL [1] was 891 min, the max response [2, 3] was 1,51 DF/F0 and the EC50 [2, 4] was 0.0351 µM.

In the case of CC(C)C[C@H](NC(=O)[C@@H](N)Cc1ccc(O)cc1)C(=O)N1CCC[C@H]1C(=O)NCC(=O)N[C@@H](CCC(N)=O)C(=O)N[C@@H](C)C(=O)N[C@H](Cc1ccccc1)C(=O)N[C@@H](Cc1ccccc1)C(=O)N[C@@H](CCCCN)C(=O)O [compound 78] (H-YLPGQA[dF]FK-OH; N-terminus assumed), the half-life at 50 µg/mL [1] is reported as 24 min, the max response [2, 3] is reported as 1,15 DF/F0 and the EC50 [2, 4] is reported as 233 µM.

In the case of CC(C)C[C@H](NC(=O)[C@H](Cc1ccc(O)cc1)NC(=O)[C@@H](Cc1ccccc1)NC(=O)[C@@H]1CCCN1C(=O)[C@H](CC(C)C)NC(=O)[C@@H](N)Cc1ccc(O)cc1)C(=O)N1CCC[C@H]1C(=O)NCC(=O)N[C@H](Cc1ccccc1)C(=O)O [compound 145] (H-YLP[dF]YLPG[dF]-OH; N-terminus assumed), the half-life at 50 µg/mL [1] is reported as 40 min, the max response [2, 3] is reported as 1,02 DF/F0 and the EC50 [2, 4] is reported as 0.15 µM.

With CC(C)C[C@@H](NC(=O)[C@H](CCCNC(=N)N)NC(=O)[C@@H](N)Cc1ccc(O)cc1)C(=O)NCC(=O)N[C@@H](CCC(N)=O)C(=O)N[C@@H](Cc1ccc(O)cc1)C(=O)N[C@H](Cc1c[nH]c2ccccc12)C(=O)N[C@H](CC(=O)O)C(=O)N[C@H](Cc1ccccc1)C(=O)O [compound 129] (H-YR[dL]GQY[dW][dD][dF]-OH; N-terminus assumed) the half-life at 50 µg/mL [1] was 32 min, the max response [2, 3] was 1,1 DF/F0 and the EC50 [2, 4] was 0.0417 µM.

For C[C@H](NC(=O)[C@H](Cc1ccc(O)cc1)NC(=O)[C@H](CCC(N)=O)NC(=O)CNC(=O)[C@@H]1CCCN1C(=O)[C@H](CCCNC(=N)N)NC(=O)[C@@H](N)Cc1ccc(O)cc1)C(=O)N[C@@H](Cc1ccccc1)C(=O)N[C@H](CO)C(=O)O (H-YRPGQYAF[dS]-OH; N-terminus assumed), the half-life at 50 µg/mL [1] was 21 ± 4 min and the EC50 [2, 5] was 0.00862 ± 0.00501 µM.

In the case of CC(C)C[C@H](N)C(=O)N[C@H](Cc1c[nH]c2ccccc12)C(=O)NCC(=O)NCC(=O)N1CCC[C@H]1C(=O)N[C@@H](Cc1ccc(O)cc1)C(=O)N[C@H](Cc1c[nH]c2ccccc12)C(=O)N[C@@H](Cc1ccc(O)cc1)C(=O)N[C@H](CO)C(=O)O [compound 128] (H-L[dW]GGPY[dW]Y[dS]-OH; N-terminus assumed), the half-life at 50 µg/mL [1] is reported as 480 min, the max response [2, 3] is reported as 1,45 DF/F0 and the EC50 [2, 4] is reported as 0.0387 µM.

In the case of FLPGALGFF-OH [compound 60], the half-life at 50 µg/mL [1] is reported as 19 min, the max response [2, 3] is reported as 0,69 DF/F0 and the EC50 [2, 4] is reported as 0.406 µM.

For YLPGQYAFL-OH, the half-life at 50 µg/mL [1] was 27 ± 4 min and the EC50 [2, 5] was 0.00575 ± 0.00256 µM.

For CC(C)C[C@H](NC(=O)[C@@H](N)Cc1ccc(O)cc1)C(=O)N1CCC[C@H]1C(=O)NCC(=O)N[C@@H](CCC(N)=O)C(=O)N[C@@H](Cc1ccccc1)C(=O)N[C@@H](C)C(=O)N[C@H](Cc1ccccc1)C(=O)N[C@@H](Cc1ccccc1)C(=O)O [compound 42] (H-YLPGQFA[dF]F-OH; N-terminus assumed), the half-life at 50 µg/mL [1] was 30 min, the max response [2, 3] was 1,07 DF/F0 and the EC50 [2, 4] was 0.00893 µM.

With CC(C)C[C@H](NC(=O)[C@@H](N)Cc1ccc(O)cc1)C(=O)N1CCC[C@H]1C(=O)N[C@@H](Cc1ccc(O)cc1)C(=O)N1CCC[C@H]1C(=O)N[C@@H](Cc1ccc(O)cc1)C(=O)N1CCC[C@@H]1C(=O)N[C@@H](Cc1ccccc1)C(=O)N[C@H](Cc1ccccc1)C(=O)O [compound 147] (H-YLPYPY[dP]F[dF]-OH; N-terminus assumed) the half-life at 50 µg/mL [1] was 28 min, the max response [2, 3] was 1,36 DF/F0 and the EC50 [2, 4] was 0.207 µM.

In the case of YLPGQYLFL-OH [compound 56], the half-life at 50 µg/mL [1] is reported as 19 min, the max response [2, 3] is reported as 0,57 DF/F0 and the EC50 [2, 4] is reported as 0.114 µM.

For CSCC[C@H](NC(=O)[C@H](N)Cc1ccc(O)cc1)C(=O)N1CCC[C@H]1C(=O)NCC(=O)N[C@@H](CCC(N)=O)C(=O)N[C@@H](Cc1ccc(O)cc1)C(=O)N[C@@H](C)C(=O)N[C@@H](Cc1ccccc1)C(=O)N[C@@H](CO)C(=O)O [compound 85] (H-[dY]MPGQYAFS-OH; N-terminus assumed), the half-life at 50 µg/mL [1] was 75 min, the max response [2, 3] was 1,78 DF/F0 and the EC50 [2, 4] was 0.0117 µM.

For CC(C)C[C@H](NC(=O)[C@@H](N)Cc1ccc(O)cc1)C(=O)N1CCC[C@H]1C(=O)NCC(=O)N[C@@H](CCC(N)=O)C(=O)N[C@@H](Cc1ccc(O)cc1)C(=O)N[C@H](Cc1c[nH]c2ccccc12)C(=O)N1CCC[C@H]1C(=O)N[C@H](Cc1ccccc1)C(=O)O [compound 126] (H-YLPGQY[dW]P[dF]-OH; N-terminus assumed), the half-life at 50 µg/mL [1] was 47 min, the max response [2, 3] was 1,33 DF/F0 and the EC50 [2, 4] was 0.021 µM.

For C[C@H](N)C(=O)N[C@@H](Cc1ccccc1)C(=O)N[C@H](CO)C(=O)N[C@@H](CCC(N)=O)C(=O)N[C@@H](Cc1ccccc1)C(=O)N[C@H](CO)C(=O)N[C@@H](C)C(=O)N[C@@H](Cc1ccccc1)C(=O)N[C@H](CO)C(=O)O [compound 106] (H-AF[dS]QF[dS]AF[dS]-OH; N-terminus assumed), the half-life at 50 µg/mL [1] was 110 min, the max response [2, 3] was 1,53 DF/F0 and the EC50 [2, 4] was 0.697 µM.
